Measured values reported in patent US6026817A, “Method of treating the syndrome of coronary heart disease risk factors in humans” (priority 1998, dated 2000).

What was measured:
[1] = test system: subject one with Impaired Glucose Tolerance and borderline Type 2 Diabetes; assay: Example III: Nalmefene given to a subject with Impaired Glucose Tolerance, blood values, enzymes, weight, blood pressure; assay type: in vivo, human; set-up: HgbA1c Δ% (reduction) / C-Peptide Δ% (reduction) / Chol. Total Δ% (reduction) / LDL-C. Δ% (reduction) / TG Δ% (reduction) / FFA Δ% (reduction): concentration or dose not given beside the values
[2] = test system: μ, δ, and κ opiate receptors; assay: Ratios of IC50 between opiate receptors; assay type: binding
Text: For each receptor there is a prototype ligand. […] For the μ receptor the prototype ligand is DHM (dihydromorphine). For the δ receptor, the prototype ligand is DADLE (D-Ala+D-Leu-Enkephalin), and for the κ receptor, the prototype ligand is EKC (ethylketocyclazocine).
The relationship between the IC50 levels f or the μ, δ, κ opiate receptors may also be expressed in terms of a ratio.

[3] = test system: women with polycystic ovary syndrome with Acanthosis Nigrians; conditions: four women, period of a few days; cited from earlier work
[4] = test system: insulin resistant subject; assay: Example I: metyrosine given to an insulin resistant subject, fasting blood values; assay type: in vivo, human
Protocol: A insulin resistant subject was given 250 mg metyrosine twice daily.

body weight = conditions: in vivo; cited from earlier work
[5] = 8 weeks of 250 mg twice daily vs initial
[6] = initial levels, before treatment

Which ALT ([1]; Day 1) does the source give for `C=C1CC[C@@]2(O)[C@H]3Cc4ccc(O)c5c4[C@@]2(CCN3CC2CC2)[C@H]1O5` [Nalmefene, 6-desoxy-6-methylene-naltrexone] here?
Its ALT is 72 U/L.

And the AST ([1]; Day 1)?
Its AST is 31 U/L.

And the Alk-phos ([1]; Day 1)?
The Alk-phos was 70 U/L.

What about the “Blood Pressure, diastolic” value ([1]; Day 1) of the same molecule?
The value was 100.

What about the “Blood Pressure, systolic” value ([1]; Day 1) of the same molecule?
The value was 136.

And the C-Peptide ([1]; Day 1)?
The C-Peptide was 4.7 ng/mL.

What about the “Chol. Total” value ([1]; Day 1) of the same molecule?
The value was 247 mg/dL.

What about the FFA ([1]; Day 1) of the same molecule?
The FFA was 0.68 mM/L.

And the GG-transp ([1]; Day 1)?
The GG-transp was 56 U/L.

What about the Glucose ([1]; Day 1) of the same molecule?
Its Glucose is 138 mg/dL.

What about the HDL-C. ([1]; Day 1) of the same molecule?
The HDL-C. was 37 mg/dL.

And the HgbA1c ([1]; Day 1)?
The HgbA1c was 6.0%.

And the Insulin ([1]; Day 1)?
The Insulin was 27 μU/ml.

And the LD ([1]; Day 1)?
The LD was 125 U/L.

And the LDL-C. ([1]; Day 1)?
Its LDL-C. is 140 mg/dL.

And the LDL/HDL ([1]; Day 1)?
The LDL/HDL was 3.78.

What about the TG ([1]; Day 1) of the same molecule?
Its TG is 270 mg/dL.

And the Weight ([1]; Day 1)?
Its Weight is 86 kg.

And the ALT ([1]; Day 141, 0.5 mg b.i.d.)?
Its ALT is 42 U/L.

And the AST ([1]; Day 141, 0.5 mg b.i.d.)?
The AST was 16 U/L.

And the Alk-phos ([1]; Day 141, 0.5 mg b.i.d.)?
The Alk-phos was 72 U/L.

And the “Blood Pressure, diastolic” value ([1]; Day 141, 0.5 mg b.i.d.)?
The value was 83.

And the “Blood Pressure, systolic” value ([1]; Day 141, 0.5 mg b.i.d.)?
Its value is 128.

What about the C-Peptide ([1]; Day 141, 0.5 mg b.i.d.) of the same molecule?
Its C-Peptide is 2.9 ng/mL.

And the “Chol. Total” value ([1]; Day 141, 0.5 mg b.i.d.)?
The value was 193 mg/dL.

What about the FFA ([1]; Day 141, 0.5 mg b.i.d.) of the same molecule?
The FFA was 0.41 mM/L.

What about the GG-transp ([1]; Day 141, 0.5 mg b.i.d.) of the same molecule?
Its GG-transp is 32 U/L.

What about the Glucose ([1]; Day 141, 0.5 mg b.i.d.) of the same molecule?
The Glucose was 120 mg/dL.

And the HDL-C. ([1]; Day 141, 0.5 mg b.i.d.)?
Its HDL-C. is 40 mg/dL.

And the HgbA1c ([1]; Day 141, 0.5 mg b.i.d.)?
Its HgbA1c is 5.4%.

And the Insulin ([1]; Day 141, 0.5 mg b.i.d.)?
The Insulin was 16 μU/ml.

What about the LD ([1]; Day 141, 0.5 mg b.i.d.) of the same molecule?
The LD was 120 U/L.

And the LDL-C. ([1]; Day 141, 0.5 mg b.i.d.)?
The LDL-C. was 118 mg/dL.

And the LDL/HDL ([1]; Day 141, 0.5 mg b.i.d.)?
Its LDL/HDL is 2.95.

And the TG ([1]; Day 141, 0.5 mg b.i.d.)?
Its TG is 175 mg/dL.

And the Weight ([1]; Day 141, 0.5 mg b.i.d.)?
The Weight was 79 kg.

What about the “ALT Δ%” value ([1]; Day 141 vs Day 1) of the same molecule?
The value was 42%.

What about the “AST Δ%” value ([1]; Day 141 vs Day 1) of the same molecule?
Its value is 48%.

And the “Alk-phos Δ%” value ([1]; Day 141 vs Day 1)?
Its value is 3%.

What about the “Blood Pressure reduction, diastolic” value ([1]; Day 141 vs Day 1) of the same molecule?
The value was 17 pts.

And the “Blood Pressure reduction, systolic” value ([1]; Day 141 vs Day 1)?
Its value is 8 pts.

And the “C-Peptide Δ% (reduction)” value ([1]; Day 141 vs Day 1)?
The value was 38%.

What about the “Chol. Total Δ% (reduction)” value ([1]; Day 141 vs Day 1) of the same molecule?
The value was 22%.

What about the “FFA Δ% (reduction)” value ([1]; Day 141 vs Day 1) of the same molecule?
The value was 40%.

And the “GG-transp Δ%” value ([1]; Day 141 vs Day 1)?
Its value is 43%.

What about the “Glucose Δ% (reduction in fasting blood glucose)” value ([1]; Day 141 vs Day 1) of the same molecule?
The value was 13%.

And the “HDL-C. Δ% (increase)” value ([1]; Day 141 vs Day 1)?
The value was 8%.

What about the “HgbA1c Δ% (reduction)” value ([1]; Day 141 vs Day 1) of the same molecule?
Its value is 10%.

What about the “Insulin Δ%” value ([1]; Day 141 vs Day 1) of the same molecule?
The value was 43%.

What about the “LD Δ%” value ([1]; Day 141 vs Day 1) of the same molecule?
Its value is 4%.

What about the “LDL-C. Δ% (reduction)” value ([1]; Day 141 vs Day 1) of the same molecule?
Its value is 16%.

What about the “LDL/HDL Δ% (improvement)” value ([1]; Day 141 vs Day 1) of the same molecule?
Its value is 22%.

And the “TG Δ% (reduction)” value ([1]; Day 141 vs Day 1)?
Its value is 35%.

What about the “Weight Δ% (reduction)” value ([1]; Day 141 vs Day 1) of the same molecule?
The value was 8%.

What about the “δ,κ,μ IC50 being within a factor of” value [2] of the same molecule?
The value was no more than 10.

And the elevated insulin concentrations [3]?
Its elevated insulin concentrations is “reduced”.

For `C[C@](N)(Cc1ccc(O)cc1)C(=O)O` [metyrosine, α-methyltyrosine], which “Chol. Tot” value ([4]; 4 weeks after discontinuation) is on record?
Its value is 254 mg/dL.

And the FFA ([4]; 4 weeks after discontinuation)?
The FFA was 747 μE/ml.

What about the Glucose ([4]; 4 weeks after discontinuation) of the same molecule?
The Glucose was 122 mg/dL.

What about the HDL ([4]; 4 weeks after discontinuation) of the same molecule?
The HDL was 37 mg/dL.

What about the Insulin ([4]; 4 weeks after discontinuation) of the same molecule?
The Insulin was 15 μU/ml.

What about the LDL ([4]; 4 weeks after discontinuation) of the same molecule?
The LDL was 189 mg/dL.

And the LDL/HDL ([4]; 4 weeks after discontinuation)?
The LDL/HDL was 5.1.

And the TG ([4]; 4 weeks after discontinuation)?
Its TG is 211 mg/dL.

And the “all values after discontinuation of the treatment regimen” value ([4]; 4 weeks following discontinuation)?
Its value is “returned essentially to their pre-study levels”.

What about the “Chol. Tot” value ([4]; 8 weeks of 250 mg twice daily) of the same molecule?
The value was 209 mg/dL.

What about the Glucose ([4]; 8 weeks of 250 mg twice daily) of the same molecule?
Its Glucose is 110 mg/dL.

What about the HDL ([4]; 8 weeks of 250 mg twice daily) of the same molecule?
Its HDL is 27 mg/dL.

What about the Insulin ([4]; 8 weeks of 250 mg twice daily) of the same molecule?
The Insulin was 13 μU/ml.

And the LDL ([4]; 8 weeks of 250 mg twice daily)?
The LDL was 134 mg/dL.

What about the LDL/HDL ([4]; 8 weeks of 250 mg twice daily) of the same molecule?
Its LDL/HDL is 5.0.

And the TG ([4]; 8 weeks of 250 mg twice daily)?
Its TG is 144 mg/dL.

What about the “free fatty acids (FFA)” value ([4]; 8 weeks of 250 mg twice daily) of the same molecule?
The value was 575 μE/L.

What about the FFA ([4]; 8 weeks of 250 mg twice daily (Table I)) of the same molecule?
Its FFA is 575 μE/ml.

And the “decrease of HDL” value [4, 5]?
The value was 34%.

And the “decrease of LDL” value [4, 5]?
Its value is 24%.

What about the “decrease of fasting blood glucose level (BGL)” value [4, 5] of the same molecule?
Its value is 10%.

And the “decrease of free fatty acids (FFA)” value [4, 5]?
Its value is 23%.

And the decrease of insulin [4, 5]?
The decrease of insulin was 32%.

What about the “decrease of total cholesterol (TCH)” value [4, 5] of the same molecule?
Its value is 30%.

What about the “decrease of triglycerides (TG)” value [4, 5] of the same molecule?
Its value is 31%.

What about the HDL ([4]; 14 weeks of 250 mg twice daily) of the same molecule?
The HDL was 39 mg/dL.

What about the LDL ([4]; 14 weeks of 250 mg twice daily) of the same molecule?
Its LDL is 119 mg/dL.

What about the LDL/HDL ([4]; 14 weeks of 250 mg twice daily) of the same molecule?
Its LDL/HDL is 3.1.

And the “total reduction of LDL from the beginning of the study” value ([4]; 14 weeks of 250 mg twice daily)?
Its value is 32%.

What about the “free fatty acids (FFA)” value ([4]; initial level) of the same molecule?
Its value is 742 μE/L.

And the “Chol. Tot” value [4, 6]?
Its value is 299 mg/dL.

What about the Glucose [4, 6] of the same molecule?
The Glucose was 121 mg/dL.

And the HDL [4, 6]?
Its HDL is 41 mg/dL.

And the Insulin [4, 6]?
Its Insulin is 19 μU/ml.

What about the LDL [4, 6] of the same molecule?
Its LDL is 176 mg/dL.

And the LDL/HDL [4, 6]?
The LDL/HDL was 4.3.

What about the TG [4, 6] of the same molecule?
The TG was 208 mg/dL.

What about the FFA ([4]; initial levels, before treatment (Table I)) of the same molecule?
The FFA was 742 μE/ml.

And the body weight ([4]; week 8)?
The body weight was “slight decrease”.

Which “reduction of body weight” value (body weight) does the source give for `O=C1CC[C@@]2(O)[C@H]3Cc4ccc(O)c5c4[C@@]2(CCN3CC2CC2)[C@H]1O5` [Naltrexone] here?
Its value is “inconsistent results”.
